Laboratory results published in PubChem BioAssay AID248 (DTP/NCI, 2004).
“And” between values parts separate entries of the source, which are not always exact repeats. Equal entries are not always repeated. Toxic doses and inconclusive results are not listed. Cut-off read from the data, not from the text of the source: active = T/C of 150% or more; inactive = T/C below 125%.

Tested on: L1210 leukemia ip in BDF1 mice, survival T/C
Experiment: NCI In Vivo Anticancer Drug Screen. Data for tumor model L1210 Leukemia (intraperitoneal) in B6D2F1 (BDF1) mice
Conditions: endpoint: mean survival time, higher = longer survival
Outline: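 Survival endpoint. Drug-treated group vs vehicle group, expressed as T divided by C. Tumor passaged by transplantation.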

[1] = dose: 25.0 mg/kg/injection, schedule: Q01DX001 (ip), vehicle: saline
[2] = dose: 25.0 mg/kg/injection, schedule: Q01DX009 (ip), vehicle: saline
[3] = dose: 25.0 mg/kg/injection, schedule: Q04DX003 (ip), vehicle: saline
[4] = dose: 50.0 mg/kg/injection, schedule: Q01DX001 (ip), vehicle: saline
[5] = dose: 50.0 mg/kg/injection, schedule: Q01DX009 (ip), vehicle: saline
[6] = dose: 50.0 mg/kg/injection, schedule: Q04DX003 (ip), vehicle: saline
[7] = dose: 100.0 mg/kg/injection, schedule: Q04DX003 (ip), vehicle: saline
[8] = dose: 100.0 mg/kg/injection, schedule: Q01DX001 (ip), vehicle: saline
[9] = dose: 200.0 mg/kg/injection, schedule: Q01DX001 (ip), vehicle: saline
[10] = dose: 400.0 mg/kg/injection, schedule: Q01DX001 (ip), vehicle: saline
[11] = dose: 100.0 mg/kg/injection, schedule: Q04DX002 (ip), vehicle: Klucel (hydroxypropylcellulose) (HPC)
[12] = dose: 200.0 mg/kg/injection, schedule: Q04DX002 (ip), vehicle: Klucel (hydroxypropylcellulose) (HPC)
[13] = dose: 400.0 mg/kg/injection, schedule: Q04DX002 (ip), vehicle: Klucel (hydroxypropylcellulose) (HPC)
[14] = dose: 75.0 mg/kg/injection, schedule: Q01DX001 (ip), vehicle: saline
[15] = dose: 75.0 mg/kg/injection, schedule: Q04DX003 (ip), vehicle: saline
[16] = dose: 150.0 mg/kg/injection, schedule: Q01DX001 (ip), vehicle: saline
[17] = dose: 150.0 mg/kg/injection, schedule: Q04DX003 (ip), vehicle: saline
[18] = dose: 100.0 mg/kg/injection, schedule: Q01DX009 (ip), vehicle: Klucel (hydroxypropylcellulose) (HPC)
[19] = dose: 100.0 mg/kg/injection, schedule: Q04DX003 (ip), vehicle: Klucel (hydroxypropylcellulose) (HPC)
[20] = dose: 200.0 mg/kg/injection, schedule: Q01DX009 (ip), vehicle: Klucel (hydroxypropylcellulose) (HPC)
[21] = dose: 200.0 mg/kg/injection, schedule: Q04DX003 (ip), vehicle: Klucel (hydroxypropylcellulose) (HPC)
[22] = dose: 400.0 mg/kg/injection, schedule: Q01DX009 (ip), vehicle: Klucel (hydroxypropylcellulose) (HPC)
[23] = dose: 400.0 mg/kg/injection, schedule: Q04DX003 (ip), vehicle: Klucel (hydroxypropylcellulose) (HPC)
[24] = dose: 100.0 mg/kg/injection, schedule: Q01DX009 (ip), vehicle: saline
[25] = dose: 200.0 mg/kg/injection, schedule: Q01DX009 (ip), vehicle: saline
[26] = dose: 200.0 mg/kg/injection, schedule: Q04DX003 (ip), vehicle: saline
[27] = dose: 50.0 mg/kg/injection, schedule: Q01DX009 (ip), vehicle: Klucel (hydroxypropylcellulose) (HPC)

Measured: T/C

CCCCCCCC(=O)NOS(=O)(=O)O
inactive: [1] 101 % of control | [2] 91 % of control | [3] 100 % of control | [4] 97 % of control | [5] 88 % of control | [6] 95 % of control | [7] 95 % of control

O=S(=O)(c1ccc(Cl)cc1)C1CCCC1Cl (centres undefined)
inactive: [8] 110 % of control | [9] 109 % of control | [10] 100 % of control

Cc1no[n+]([O-])c1NC(=O)OCc1ccccc1
inactive: [11] 98 % of control | [12] 102 % of control | [13] 98 % of control

CCCCCCCCCCCCCCCCOS(=O)(=O)O
inactive: dose: 37.5 mg/kg/injection, schedule: Q04DX003 (ip), vehicle: saline 103 % of control | [14] 106 % of control | [15] 97 % of control | [16] 90 % of control | [17] 96 % of control

Clc1cc(Cl)c2c(c1)Cc1cc(Cl)cc(Cl)c1-2
inactive: [18] 94 % of control | [19] 92 % of control | [20] 91 % of control | [21] 89 % of control | [22] 87 % of control | [23] 102 % of control

C=CCC(CC)C(=O)O (centres undefined)
inactive: [24] 104 % of control | [7] 100 % of control | [25] 96 % of control | [26] 97 % of control | dose: 400.0 mg/kg/injection, schedule: Q04DX003 (ip), vehicle: saline 97 % of control

CCOc1ccccc1NC(=O)Nc1cccc2ccccc12
inactive: [18] 104 % of control | [19] 90 % of control | [20] 96 % of control | [21] 91 % of control | [22] 102 % of control | [23] 88 % of control

CC(C)C1(C(C)C)S(=O)(=O)CCS1(=O)=O
inactive: [8] 98 % of control | [9] 93 % of control | [10] 102 % of control

CC(C)OC(=S)SC(C(=O)c1ccccc1)c1ccccc1 (centres undefined)
inactive: [11] 91 % of control | [12] 91 % of control | [13] 91 % of control

O=c1[nH]nc(CF)c(=O)[nH]1
inactive: dose: 5.0 mg/kg/injection, schedule: Q01DX009 (ip), vehicle: saline 107 % of control | dose: 6.0 mg/kg/injection, schedule: Q01DX009 (ip), vehicle: saline 108 % of control | dose: 10.0 mg/kg/injection, schedule: Q01DX009 (ip), vehicle: saline 116 % of control | dose: 11.0 mg/kg/injection, schedule: Q01DX Z (ip), vehicle: saline 111 % of control | dose: 12.0 mg/kg/injection, schedule: Q01DX009 (ip), vehicle: saline 112 % of control | dose: 14.0 mg/kg/injection, schedule: Q01DX009 (ip), vehicle: saline 104 % of control | dose: 16.0 mg/kg/injection, schedule: Q01DX Z (ip), vehicle: saline 111 % of control | dose: 20.0 mg/kg/injection, schedule: Q01DX009 (ip), vehicle: saline 105 % of control and 124 % of control | dose: 24.0 mg/kg/injection, schedule: Q01DX009 (ip), vehicle: saline 122 % of control | dose: 30.0 mg/kg/injection, schedule: Q01DX009 (ip), vehicle: saline 119 % of control | dose: 40.0 mg/kg/injection, schedule: Q01DX009 (ip), vehicle: saline 116 % of control | [4] 110 % of control | [8] 119 % of control

COc1cc(N2C(=O)C=CC2=O)ccc1N1C(=O)C=CC1=O
inactive: dose: 5.0 mg/kg/injection, schedule: Q01DX001 (ip), vehicle: saline 111 % of control | dose: 10.0 mg/kg/injection, schedule: Q01DX001 (ip), vehicle: saline 111 % of control

C1COC2(OC1)OCCCO2
inactive: [11] 108 % of control | [12] 105 % of control | [13] 105 % of control

O=C1CC(OC(=O)c2ccccc2)(c2ccccc2)OC(c2ccccc2)=C1c1ccccc1 (centres undefined)
inactive: [8] 101 % of control | [19] 97 % of control | [9] 104 % of control | [21] 100 % of control | [10] 96 % of control | [23] 100 % of control

NC(=O)NOCC1NC(=O)NC1=O (centres undefined)
inactive: [24] 96 % of control | [25] 102 % of control | dose: 400.0 mg/kg/injection, schedule: Q01DX009 (ip), vehicle: saline 102 % of control

[O-][n+]1ccc(N2CCOCC2)cc1
inactive: [8] 100 % of control

COc1ccc(/C=N/NC(=O)c2ccco2)cc1OC
inactive: dose: 100.0 mg/kg/injection, schedule: Q01DX001 (ip), vehicle: other 93 % of control | dose: 400.0 mg/kg/injection, schedule: Q01DX001 (ip), vehicle: other 96 % of control

CC(=O)C1(c2ccccc2)OC1c1ccccc1 (centres undefined)
inactive: [27] 96 % of control | [18] 112 % of control | [19] 90 % of control | [20] 96 % of control | [21] 95 % of control

CNc1cc(C(=O)O)nc(NC)n1
inactive: dose: 25.0 mg/kg/injection, schedule: Q01DX Z (ip), vehicle: saline 102 % of control | dose: 50.0 mg/kg/injection, schedule: Q01DX Z (ip), vehicle: saline 98 % of control

CCC(=O)c1cc(Cl)ccc1O
inactive: dose: 100.0 mg/kg/injection, schedule: Q01DX009 (ip), vehicle: other 100 % of control | dose: 200.0 mg/kg/injection, schedule: Q01DX009 (ip), vehicle: other 104 % of control | dose: 400.0 mg/kg/injection, schedule: Q01DX009 (ip), vehicle: other 102 % of control

COC1=CC(C)(C)c2ccccc2C1=O
inactive: dose: 50.0 mg/kg/injection, schedule: Q01DX009 (ip), vehicle: saline sonified 97 % of control | dose: 100.0 mg/kg/injection, schedule: Q01DX009 (ip), vehicle: saline sonified 99 % of control | [19] 97 % of control | dose: 200.0 mg/kg/injection, schedule: Q01DX009 (ip), vehicle: saline sonified 97 % of control | [21] 115 % of control | [23] 97 % of control

CC1(C)COCN1CN1COCC1(C)C
inactive: [7] 101 % of control | [26] 95 % of control

O=C(O)CP(=O)(O)O
inactive: [15] 102 % of control | [17] 102 % of control | dose: 300.0 mg/kg/injection, schedule: Q04DX003 (ip), vehicle: saline 93 % of control

CCCCOCCOc1ccc(C(=O)OC)cc1
inactive: dose: 100.0 mg/kg/injection, schedule: Q04DX003 (ip), vehicle: saline sonified 101 % of control | dose: 200.0 mg/kg/injection, schedule: Q04DX003 (ip), vehicle: saline sonified 111 % of control | dose: 400.0 mg/kg/injection, schedule: Q04DX003 (ip), vehicle: saline sonified 101 % of control

COc1ccc2cc[n+](C)cc2c1
inactive: dose: 12.5 mg/kg/injection, schedule: Q01DX009 (ip), vehicle: saline 101 % of control | [2] 110 % of control | [3] 100 % of control | [5] 110 % of control | [6] 96 % of control

CC1(C)OC2OC(/C=C\C=O)C3OC(C)(C)OC3C2O1 (centres undefined)
inactive: dose: 100.0 mg/kg/injection, schedule: Q04DX003 (ip), vehicle: acetone 100 % of control | dose: 200.0 mg/kg/injection, schedule: Q04DX003 (ip), vehicle: acetone 104 % of control

CCOC(=O)C1CC=CCC1C(=O)OCC (centres undefined)
inactive: [27] 105 % of control | dose: 75.0 mg/kg/injection, schedule: Q01DX009 (ip), vehicle: Klucel (hydroxypropylcellulose) (HPC) 108 % of control | dose: 150.0 mg/kg/injection, schedule: Q01DX009 (ip), vehicle: Klucel (hydroxypropylcellulose) (HPC) 112 % of control

O=C(O)CCC(CC(=O)O)c1ccccc1 (centres undefined)
inactive: [18] 97 % of control | [20] 96 % of control | [22] 93 % of control

C=C(C)C1(CCCC)C(=O)NC(=O)NC1=O
inactive: [14] 104 % of control and 102 % of control | [16] 107 % of control and 100 % of control | dose: 300.0 mg/kg/injection, schedule: Q01DX001 (ip), vehicle: saline 102 % of control

CC(=O)OCC1OC(N2c3ccccc3CC2C)C(OC(C)=O)C(OC(C)=O)C1OC(C)=O (centres undefined)
inactive: [1] 94 % of control | [4] 94 % of control | [8] 94 % of control
